Data on ten compounds can be found in ChEMBL document CHEMBL1201862, “PubChem BioAssay data set” (2004).

Some test systems named below: A498; OVCAR-3; RXF 393; T47D; CAKI-1; HT-29; MOLT-4; NCI-H460; U-251; 786-0; DU-145; OVCAR-8; SK-OV-3; CCRF-CEM; A549; OVCAR-4; RPMI-8226; NCI-H522; UO-31; OVCAR-5.
What all share (test): NCI-60 cell line screen, 48 h

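Step 1: Grow cells in 96-well plates. Step 2: Expose to compound for 48 hours at 5 concentrations. Step 3: Interpolate endpoints linearly; if unreached, use highest concentration. GI50 = concentration required for 50% inhibition of growth.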 Calls of active or inactive are those of the source. Rule as the data show it: active = GI50 up to about 1.1 µM and inactive = higher.

For `Cc1ccnc2nc(-c3cccc(Cl)c3)cc(O)c12`, the GI50 in the assay on A498 is 0.234 µM (active); in the assay with OVCAR-3, 0.0279 µM (active); in the assay on RXF 393 it was 2.77 µM (inactive); in the assay on T47D it was > 100 µM (inactive); in the assay on CAKI-1, 1.33 µM (inactive); with HT-29 it was 0.0401 µM (active). Also, the GI50 is 0.0658 µM (active) in the assay with MOLT-4; 0.0386 µM (active) in the assay with NCI-H460; 0.0596 µM (active) with U-251; 0.08 µM (active) with 786-0; 0.495 µM (active) in the assay on DU-145; 0.308 µM (active) in the assay with OVCAR-8. Besides, the GI50 in the assay with SK-OV-3 was 0.267 µM (active); in the assay on CCRF-CEM it was 0.0553 µM (active); in the assay on A549, 0.0748 µM (active); in the assay with OVCAR-4, > 91.4 µM (inactive); with RPMI-8226 it was 0.0356 µM (active); with NCI-H522, 0.0459 µM (active).
For the compound `c1ccc(CCN2CCOCC2)nc1`, the GI50 in the assay on A498, in the assay on OVCAR-3, in the assay with RXF 393, with T47D, in the assay on CAKI-1 and in the assay on HT-29 was > 100 µM (inactive) in each case. Moreover, the GI50 in the assay with NCI-H460, with U-251, in the assay with 786-0, in the assay with DU-145, in the assay with OVCAR-8 and in the assay with SK-OV-3 was > 100 µM (inactive) each time. Besides, the GI50 in the assay with CCRF-CEM, with A549, with OVCAR-4, in the assay on RPMI-8226, in the assay on NCI-H522 and in the assay with UO-31 was > 100 µM (inactive) throughout. The GI50 with OVCAR-5 was > 100 µM (inactive).
As for `Cc1ccc(S(=O)(=O)NC(=O)C2=C3SCCN3C(=O)N(S(=O)(=O)c3ccc(C)cc3)C2c2ccccc2)cc1` (configuration not stated), the GI50 in the assay on A498 is > 100 µM (inactive); in the assay on OVCAR-3 it was 20 µM (inactive); in the assay on RXF 393 it was 25.1 µM (inactive); with T47D, > 100 µM (inactive); with CAKI-1 it was > 100 µM (inactive); in the assay on HT-29 it was 34.4 µM (inactive). The GI50 in the assay on MOLT-4 is 44.9 µM (inactive); with NCI-H460 it was 71.1 µM (inactive); in the assay on U-251, 39.3 µM (inactive); in the assay with 786-0 it was 51.9 µM (inactive); with DU-145 it was > 100 µM (inactive); with OVCAR-8, 77.1 µM (inactive). Besides, the GI50 is 24.1 µM (inactive) in the assay with SK-OV-3; 19.4 µM (inactive) with CCRF-CEM; > 100 µM (inactive) in the assay with A549; 58.6 µM (inactive) in the assay on OVCAR-4; 26.7 µM (inactive) with RPMI-8226; 20.4 µM (inactive) in the assay with NCI-H522. Moreover, the GI50 with UO-31 was > 100 µM (inactive); in the assay on OVCAR-5 it was 39.4 µM (inactive).
Consider `O=C(NCC(O)COc1ccccc1)c1ccccc1O` (configuration not stated), for which the GI50 was > 100 µM (inactive) in the assay with A498; > 100 µM (inactive) in the assay on OVCAR-3; > 100 µM (inactive) in the assay on RXF 393; 42.4 µM (inactive) in the assay with T47D; > 100 µM (inactive) in the assay on CAKI-1; 14.5 µM (inactive) in the assay with MOLT-4. The GI50 in the assay on U-251 is > 100 µM (inactive); in the assay on 786-0 it was > 100 µM (inactive); in the assay with DU-145 it was > 100 µM (inactive); in the assay with OVCAR-8 it was > 100 µM (inactive); with SK-OV-3, > 100 µM (inactive); in the assay with CCRF-CEM it was 40.5 µM (inactive). Besides, the GI50 in the assay on A549 was > 100 µM (inactive); with OVCAR-4, > 100 µM (inactive); in the assay on RPMI-8226, > 100 µM (inactive); in the assay on NCI-H522, 55.6 µM (inactive); in the assay with UO-31, 47.8 µM (inactive); with OVCAR-5, > 100 µM (inactive).
For the compound `COc1ccccc1N/C(=C\C(=O)C(=O)NC12CC3CC(CC(C3)C1)C2)c1ccccc1`, the GI50 with A498 was > 10 µM (inactive); in the assay on OVCAR-3 it was 5.31 µM (inactive); in the assay on RXF 393, > 10 µM (inactive); in the assay with T47D, > 10 µM (inactive); with CAKI-1, > 10 µM (inactive); in the assay on HT-29 it was > 10 µM (inactive). Also, the GI50 with MOLT-4, in the assay with NCI-H460, with U-251, in the assay on 786-0, in the assay on DU-145 and in the assay with OVCAR-8 was > 10 µM (inactive) in each case. Besides, the GI50 was > 10 µM (inactive) with SK-OV-3; > 10 µM (inactive) in the assay on CCRF-CEM; 9.82 µM (inactive) in the assay with OVCAR-4; > 10 µM (inactive) in the assay with RPMI-8226; > 10 µM (inactive) with NCI-H522; 7.73 µM (inactive) in the assay on UO-31. Further, the GI50 in the assay with OVCAR-5 was > 10 µM (inactive).
In the case of `CC(C)=CC1C(C(=O)Oc2ccccc2C(C)C)C1(C)C` (configuration not stated), the GI50 with A498 was 19.7 µM (inactive); in the assay on OVCAR-3, 17.8 µM (inactive); in the assay on RXF 393, 16.9 µM (inactive); in the assay with T47D, 19.8 µM (inactive); in the assay on CAKI-1 it was 32.4 µM (inactive); in the assay on HT-29, 16.4 µM (inactive). Further, the GI50 was 22.4 µM (inactive) with NCI-H460; 16.7 µM (inactive) in the assay on U-251; 19.9 µM (inactive) in the assay with 786-0; 40.5 µM (inactive) in the assay on DU-145; 31.7 µM (inactive) in the assay on OVCAR-8; 31.6 µM (inactive) with SK-OV-3. Also, the GI50 is 22.8 µM (inactive) in the assay with CCRF-CEM; 31.1 µM (inactive) in the assay on A549; 52 µM (inactive) in the assay on OVCAR-4; 19.3 µM (inactive) with RPMI-8226; 16.6 µM (inactive) in the assay on NCI-H522; 17.7 µM (inactive) in the assay with UO-31. In addition, the GI50 in the assay with OVCAR-5 was 27.1 µM (inactive).
Turning to `N#Cc1ccc2oc3ccc(C#N)cc3c(=O)c2c1`, the GI50 with A498 was 14.8 µM (inactive); in the assay on OVCAR-3 it was > 10 µM (inactive); with RXF 393 it was 18.3 µM (inactive); with T47D, > 100 µM (inactive); in the assay with CAKI-1, > 100 µM (inactive); in the assay with HT-29, 20.2 µM (inactive). Also, the GI50 in the assay with MOLT-4 is 23.6 µM (inactive); in the assay with NCI-H460 it was 18.6 µM (inactive); in the assay on U-251, 17.1 µM (inactive); in the assay with 786-0, 25.8 µM (inactive); in the assay with DU-145, 30.8 µM (inactive); in the assay with OVCAR-8 it was > 100 µM (inactive). Moreover, the GI50 in the assay on CCRF-CEM was 31.8 µM (inactive); with A549, 23 µM (inactive); with OVCAR-4, 18 µM (inactive); in the assay on RPMI-8226, 23.2 µM (inactive); in the assay on NCI-H522 it was 58.2 µM (inactive); in the assay with UO-31, > 100 µM (inactive). For the same compound, the GI50 in the assay on OVCAR-5 was 19.7 µM (inactive).
With `CC1=NN(c2ccccc2)C(=O)C1C(=O)C(=O)Nc1ccc(C)cc1C` (configuration not stated), the GI50 in the assay on A498, in the assay on OVCAR-3, in the assay with RXF 393, in the assay with T47D, with CAKI-1 and in the assay with HT-29 was > 100 µM (inactive) in each case. Also, the GI50 in the assay with MOLT-4, in the assay on NCI-H460, in the assay with U-251, in the assay with 786-0, in the assay on DU-145 and with OVCAR-8 was > 100 µM (inactive) throughout. Besides, the GI50 in the assay with SK-OV-3, in the assay on CCRF-CEM, in the assay with A549, with OVCAR-4, with RPMI-8226 and in the assay with NCI-H522 was > 100 µM (inactive) in each case. The GI50 in the assay with UO-31 and in the assay with OVCAR-5 was > 100 µM (inactive) each time.
As to `CC(O)c1cc2c(s1)C(=O)c1scc(C(C)O)c1C2=O` (configuration not stated), the GI50 is 2.2 µM (inactive) with A498; 0.393 µM (active) with OVCAR-3; 0.881 µM (active) in the assay with RXF 393; 1.95 µM (inactive) in the assay with T47D; 1.01 µM (active) in the assay on CAKI-1; 2.43 µM (inactive) in the assay with HT-29. The GI50 is 0.753 µM (active) with MOLT-4; 0.757 µM (active) with NCI-H460; 0.419 µM (active) in the assay with U-251; 2.07 µM (inactive) in the assay with 786-0; 0.614 µM (active) with DU-145; 0.286 µM (active) in the assay on OVCAR-8. Also, the GI50 in the assay on SK-OV-3 was 2.64 µM (inactive); in the assay on CCRF-CEM, 1.18 µM (inactive); in the assay on A549, 0.67 µM (active); in the assay with OVCAR-4, 0.745 µM (active); with RPMI-8226, 0.579 µM (active); in the assay on NCI-H522, 0.628 µM (active). Besides, the GI50 in the assay with UO-31 was 0.337 µM (active); with OVCAR-5, 1.37 µM (inactive).
For the compound `O=C(Nc1ccn(C2CCC(COC(c3ccccc3)(c3ccccc3)c3ccccc3)O2)c(=O)n1)c1ccccc1` (configuration not stated), the GI50 with A498 was 5 µM (inactive); in the assay on OVCAR-3, 2.4 µM (inactive); with RXF 393, 2.9 µM (inactive); with T47D it was 7.46 µM (inactive); in the assay with CAKI-1, 4.51 µM (inactive); in the assay on HT-29 it was 2.4 µM (inactive). In addition, the GI50 is 2.56 µM (inactive) with MOLT-4; 2.92 µM (inactive) in the assay on NCI-H460; 4.06 µM (inactive) in the assay with U-251; 2.64 µM (inactive) in the assay with 786-0; 7.91 µM (inactive) in the assay with DU-145; 4.82 µM (inactive) with OVCAR-8. Further, the GI50 with SK-OV-3 is 9.44 µM (inactive); in the assay with CCRF-CEM, 3.28 µM (inactive); with A549, 4.21 µM (inactive); in the assay with OVCAR-4, 2.82 µM (inactive); in the assay on RPMI-8226, 2.31 µM (inactive); in the assay with NCI-H522, 5.32 µM (inactive). Moreover, the GI50 in the assay on UO-31 was 5.3 µM (inactive); with OVCAR-5, 3.76 µM (inactive).
